Assay results taken from the NIST ThermoML archive (doi:10.1016/j.jct.2008.08.007).

Experiment: molar heat capacity at constant pressure
Conditions: 101.33 kPa, Crystal

OC[C@H]1O[C@@H]2O[C@H]3[C@H](O)[C@@H](O)[C@@H](O[C@H]4[C@H](O)[C@@H](O)[C@@H](O[C@H]5[C@H](O)[C@@H](O)[C@@H](O[C@H]6[C@H](O)[C@@H](O)[C@@H](O[C@H]7[C@H](O)[C@@H](O)[C@@H](O[C@H]1[C@H](O)[C@H]2O)O[C@@H]7CO)O[C@@H]6CO)O[C@@H]5CO)O[C@@H]4CO)O[C@@H]3CO [α-cyclodextrin]
Small sample (50 mg) DSC
Conditions	molar heat capacity at constant pressure [J/K/mol]
288.15 K	1074.6
293.15 K	1113.2
298.15 K	1150
303.15 K	1164.1
308.15 K	1201.5
313.15 K	1212.6
318.15 K	1230.2
323.15 K	1259.3
328.15 K	1282.6
333.15 K	1305.3
338.15 K	1335.3
343.15 K	1364.6
348.15 K	1401.6
353.15 K	1442.6
358.15 K	1502.7

O[C@@H]1[C@@H](O)[C@@H](O)OC[C@H]1O [xylopyranose, α-D-]
Vacuum adiabatic calorimetry
Conditions	molar heat capacity at constant pressure [J/K/mol]
288.15 K	178.3
293.15 K	180.9
298.15 K	180.4
303.15 K	182.8
308.15 K	185.7
313.15 K	185.8
318.15 K	187.3
323.15 K	190.4
328.15 K	192
333.15 K	192.6
338.15 K	195.7
343.15 K	200
348.15 K	204.6
353.15 K	209.4
358.15 K	213.8

OC[C@H]1OC(O)C[C@@H](O)[C@@H]1O (stereo partly drawn) [2-deoxy-D-glucose]
Small sample (50 mg) DSC
Conditions	molar heat capacity at constant pressure [J/K/mol]
288.15 K	189.6
293.15 K	195.8
298.15 K	200.2
303.15 K	201
308.15 K	204.5
313.15 K	206.9
318.15 K	209
323.15 K	213.6
328.15 K	214.7
333.15 K	218.4
338.15 K	224.9
343.15 K	226.4
348.15 K	233
353.15 K	235.4
358.15 K	244

O=C(CO)[C@@H](O)[C@H](O)[C@H](O)CO [D-fructose]
Small sample (50 mg) DSC
Conditions	molar heat capacity at constant pressure [J/K/mol]
288.15 K	220.3
293.15 K	223.6
298.15 K	227.7
303.15 K	233.3
308.15 K	236.9
313.15 K	242.4
318.15 K	247.3
323.15 K	251.5
328.15 K	251.8
333.15 K	255.1
338.15 K	259.6
343.15 K	260.9
348.15 K	266.4
353.15 K	275.3
358.15 K	290.4

CO[C@H]1O[C@H](CO)[C@@H](O)[C@H](O)[C@H]1O [methyl-α-D-glucopyranoside]
Small sample (50 mg) DSC
Conditions	molar heat capacity at constant pressure [J/K/mol]
288.15 K	232.1
293.15 K	231
298.15 K	233.7
303.15 K	235.7
308.15 K	240.7
313.15 K	247.5
318.15 K	255.9
323.15 K	264.7
328.15 K	274.2
333.15 K	283.6
338.15 K	293.4
343.15 K	302.9
348.15 K	311.5
353.15 K	319
358.15 K	325.5

OC[C@H]1O[C@@](CO)(O[C@H]2O[C@H](CO)[C@@H](O)[C@H](O)[C@H]2O)[C@@H](O)[C@@H]1O [D-sucrose]
Small sample (50 mg) DSC
Conditions	molar heat capacity at constant pressure [J/K/mol]
288.15 K	408.5
293.15 K	416.6
298.15 K	424.3
303.15 K	429.4
308.15 K	437.5
313.15 K	445.5
318.15 K	451
323.15 K	466.2
328.15 K	472.6
333.15 K	482.5
338.15 K	490.3
343.15 K	498.8
348.15 K	506.7
353.15 K	513.9
358.15 K	522

OC[C@H]1O[C@H](O)[C@H](O)[C@@H](O)[C@@H]1O [α-D-glucose]
Small sample (50 mg) DSC
Conditions	molar heat capacity at constant pressure [J/K/mol]
288.15 K	210.2
293.15 K	214.8
298.15 K	219.9
303.15 K	222.8
308.15 K	226.5
313.15 K	232.6
318.15 K	235.8
323.15 K	240.5
328.15 K	242.1
333.15 K	246.2
338.15 K	250.5
343.15 K	255.2
348.15 K	260.4
353.15 K	262.4
358.15 K	267.7

O=C[C@H](O)[C@H](O)[C@H](O)CO [D-ribose]
Small sample (50 mg) DSC
Conditions	molar heat capacity at constant pressure [J/K/mol]
288.15 K	171.3
293.15 K	179.4
298.15 K	183.2
303.15 K	188.8
308.15 K	193.9
313.15 K	201.3
318.15 K	209
323.15 K	224.6
328.15 K	245.1

OC[C@H]1O[C@@H]2O[C@H]3[C@H](O)[C@@H](O)[C@@H](O[C@H]4[C@H](O)[C@@H](O)[C@@H](O[C@H]5[C@H](O)[C@@H](O)[C@@H](O[C@H]6[C@H](O)[C@@H](O)[C@@H](O[C@H]7[C@H](O)[C@@H](O)[C@@H](O[C@H]8[C@H](O)[C@@H](O)[C@@H](O[C@H]1[C@H](O)[C@H]2O)O[C@@H]8CO)O[C@@H]7CO)O[C@@H]6CO)O[C@@H]5CO)O[C@@H]4CO)O[C@@H]3CO [β-cyclodextrin]
Small sample (50 mg) DSC
Conditions	molar heat capacity at constant pressure [J/K/mol]
288.15 K	1253.4
293.15 K	1298.3
298.15 K	1341.3
303.15 K	1357.6
308.15 K	1401.3
313.15 K	1414.1
318.15 K	1434.7
323.15 K	1468.5
328.15 K	1495.7
333.15 K	1522.1
338.15 K	1557.1
343.15 K	1591.3
348.15 K	1634.4
353.15 K	1682.1
358.15 K	1752.1

O.OC[C@H]1O[C@@H](O[C@H]2[C@H](O)[C@@H](O)[C@@H](O)O[C@@H]2CO)[C@H](O)[C@@H](O)[C@H]1O [α-D-lactose hydrate]
Small sample (50 mg) DSC
Conditions	molar heat capacity at constant pressure [J/K/mol]
288.15 K	400.9
293.15 K	426.9
298.15 K	435.8
303.15 K	440.7
308.15 K	446.4
313.15 K	450
318.15 K	452.2
323.15 K	459.8
328.15 K	464.5
333.15 K	468.3
338.15 K	477.1
343.15 K	488.2
348.15 K	497.7
353.15 K	506.8
358.15 K	522.7

O=C[C@@H](O)[C@@H](O)[C@H](O)[C@H](O)CO [D-mannose]
Small sample (50 mg) DSC
Conditions	molar heat capacity at constant pressure [J/K/mol]
288.15 K	188.7
293.15 K	200.7
298.15 K	206.6
303.15 K	215
308.15 K	223.3
313.15 K	228.2
318.15 K	231.6
323.15 K	234.5
328.15 K	236.5
333.15 K	242.1
338.15 K	245.2
343.15 K	249
348.15 K	252.4
353.15 K	254.1
358.15 K	260.2

O=C[C@H](O)[C@@H](O)[C@H](O[C@H]1O[C@H](CO)[C@@H](O[C@H]2O[C@H](CO)[C@@H](O)[C@H](O)[C@H]2O)[C@H](O)[C@H]1O)[C@H](O)CO [maltotriose]
Small sample (50 mg) DSC
Conditions	molar heat capacity at constant pressure [J/K/mol]
288.15 K	638.3
293.15 K	654
298.15 K	662.5
303.15 K	662.7
308.15 K	666.3
313.15 K	676.9
318.15 K	683.9
323.15 K	698.2
328.15 K	707.4
333.15 K	718.6
338.15 K	736.3
343.15 K	753.8
348.15 K	773.2
353.15 K	787.3
358.15 K	823.7

OC[C@H]1O[C@@H](O[C@H]2[C@H](O)[C@@H](O)[C@H](O)O[C@@H]2CO)[C@H](O)[C@@H](O)[C@@H]1O [D-cellobiose]
Small sample (50 mg) DSC
Conditions	molar heat capacity at constant pressure [J/K/mol]
288.15 K	407.8
293.15 K	431
298.15 K	436.1
303.15 K	445
308.15 K	443.1
313.15 K	446.9
318.15 K	448.7
323.15 K	463.2
328.15 K	463.5
333.15 K	473.1
338.15 K	481.1
343.15 K	490.7
348.15 K	503.2
353.15 K	515.8
358.15 K	534.8

CC(=O)N[C@@H](C=O)[C@@H](O)[C@H](O)[C@H](O)CO [N-acetyl-D-glucosamine]
Small sample (50 mg) DSC
Conditions	molar heat capacity at constant pressure [J/K/mol]
288.15 K	269.8
293.15 K	276.4
298.15 K	276.9
303.15 K	278
308.15 K	283.3
313.15 K	281
318.15 K	281.4
323.15 K	292.7
328.15 K	293.1
333.15 K	299.4
338.15 K	303.8
343.15 K	308.7
348.15 K	319.7
353.15 K	325.2
358.15 K	332

O=C[C@H](O)[C@@H](O)[C@@H](O)[C@H](O)CO [(+)-galactose]
Small sample (50 mg) DSC
Conditions	molar heat capacity at constant pressure [J/K/mol]
288.15 K	203.3
293.15 K	210.7
298.15 K	213.7
303.15 K	217.5
308.15 K	222.3
313.15 K	227.1
318.15 K	229.4
323.15 K	235.6
328.15 K	236.8
333.15 K	242.8
338.15 K	247
343.15 K	251.2
348.15 K	254.7
353.15 K	257.5
358.15 K	265.1

O=CC[C@H](O)[C@H](O)CO [2-deoxy-D-erythropentose]
Small sample (50 mg) DSC
Conditions	molar heat capacity at constant pressure [J/K/mol]
288.15 K	171.9
293.15 K	167.6
298.15 K	162
303.15 K	163.6
308.15 K	171.7
313.15 K	178.4
318.15 K	184.1
323.15 K	197.4
328.15 K	222
